The results in this text go back to patent US11498930B2 (BLUERAY THERAPEUTICS (SHANGHAI) CO., LTD., priority 2018, dated 2022).

A word on the IC50: it is the point on the concentration scale where inhibition reaches its midpoint.

The structures appear in SMILES notation.

SHP2^E76A protein, sequence (Q06124 whole entry E76A): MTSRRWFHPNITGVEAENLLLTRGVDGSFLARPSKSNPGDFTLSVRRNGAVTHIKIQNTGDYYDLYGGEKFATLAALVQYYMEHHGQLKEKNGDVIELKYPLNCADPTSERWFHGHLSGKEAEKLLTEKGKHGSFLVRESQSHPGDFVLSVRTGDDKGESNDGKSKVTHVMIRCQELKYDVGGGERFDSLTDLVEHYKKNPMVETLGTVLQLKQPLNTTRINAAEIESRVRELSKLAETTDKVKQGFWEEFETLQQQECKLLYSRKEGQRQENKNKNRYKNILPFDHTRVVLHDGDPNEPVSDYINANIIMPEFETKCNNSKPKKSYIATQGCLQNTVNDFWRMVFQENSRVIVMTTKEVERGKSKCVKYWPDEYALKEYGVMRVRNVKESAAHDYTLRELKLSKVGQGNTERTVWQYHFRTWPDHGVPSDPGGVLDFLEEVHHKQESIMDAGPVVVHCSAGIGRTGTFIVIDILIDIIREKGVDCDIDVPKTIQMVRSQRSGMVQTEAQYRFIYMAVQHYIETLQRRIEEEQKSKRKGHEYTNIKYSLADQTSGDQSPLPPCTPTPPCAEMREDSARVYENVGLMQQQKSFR

The assay concerns the target SHP2^E76A protein (Homo sapiens (Human), UniProt Q06124, E76A). In words: SHP2 enzyme activity inhibition experiment. It counts as biochemical. The note with it: SHP2 enzyme activity, Tables 1.1 and 1.2; read-out: IC50. Here is the method:
Compound powders were dissolved in DMSO to prepare mother liquor.
During the experiment, the stock solutions of the compounds were subjected to 3-fold gradient dilution with DMSO, and 10 different test concentrations of each compound were set. […] The protein used was the activated protein SHP^2E76A with amino acid mutation at position 76 of the protein, and the substrate used was DiFMUP (Invitrogen, E12020). […] 50 µL of enzyme solution was added to the detection wells, followed by 50 µL of substrate. […] GraphPad Prism 5 was used for nonlinear regression analysis, and the curve of enzyme activity versus compound concentration was fitted by the equation Y=Bottom+(Top-Bottom)/(1+10^((Log IC50−X)*HillSlope)) to calculate the IC50 value of each compound.
For the compound `C[C@H]1OCC2(CCN(c3ncc(Sc4ccnc(N)c4Cl)c4nncn34)CC2)[C@H]1N`, the IC50 was in the range of 1000 to 10000 nM.

For the compound `C[C@H]1OCC2(CCN(c3ncc(Sc4cccc(Cl)c4Cl)c4nncn34)CC2)[C@H]1N`, the half-maximal inhibitory concentration (IC50) fell in the range of 1000 to 10000 nM.

For the compound `C[C@@H]1OCC2(CCN(c3ncc(Sc4cc(N)ncc4Cl)c4nccn34)CC2)[C@@H]1N`, the concentration for half-maximal inhibition (IC50) was less than 100 nM. `N[C@@H]1CCCC12CCN(c1ncc(Sc3cccc4c3C(=O)C(=O)N4)c3nccn13)CC2`: the IC50 is 100 to 1000 nM. The value for `Cc1nc(N)cc(Sc2cnc(N3CCC4(CCC[C@H]4N)CC3)n3ccnc23)c1Cl` was less than 100 nM; that for `Cc1ncccc1Sc1cnc(N2CCC3(CCC[C@H]3N)CC2)n2ncnc12` was 1000 to 10000 nM; that for `Nc1ccc(Sc2cnc(N3CCC4(CCC[C@H]4N)CC3)n3ncnc23)cc1` was 1000 to 10000 nM. As for `CN(C)C(=O)C(=O)Nc1cccc(Sc2cnc(N3CCC4(CCC[C@H]4N)CC3)n3ccnc23)c1Cl`, the IC50 lay within 100 to 1000 nM. The same measure for `Cc1nccc(Sc2cnc(N3CCC4(CC3)COC[C@H]4N)n3cnnc23)c1Cl`: 100 to 1000 nM.

Take `CC1(N)CCN(c2ncc(-c3cccc(Cl)c3Cl)c3nncn23)CC1` [1-(8-(2,3-dichlorophenyl)-[1,2,4]triazolo[4,3-c]pyrimidin-5-yl)-4-methylpiperidin-4-amine]: the 50% inhibitory concentration (IC50) lay in the range of 1000 to 10000 nM. Turning to `CC1(N)CCN(c2ncc(Sc3cccc(Cl)c3Cl)c3ncnn23)CC1` [1-(8-((2,3-dichlorophenyl)thio)-[1,2,4]triazolo[1,5-c]pyrimidin-5-yl)-4-methylpiperidin-4-amine], the half-inhibitory concentration (IC50) lay within 1000 to 10000 nM. Turning to `NC1CCN(c2ncc(Sc3cccc(Cl)c3Cl)c3nncn23)CC1` [1-(8-((2,3-dichlorophenyl)thio)-[1,2,4]triazolo[4,3-c]pyrimidin-5-yl)piperidin-4-amine], the IC50 was 1000 to 10000 nM.

Regarding `NC1CCN(c2ncc(Sc3cccc(Cl)c3Cl)c3nccn23)CC1` [1-(8-((2,3-dichlorophenyl)thio)imidazo[1,2-c]pyrimidin-5-yl)piperidin-4-amine], the IC50 is 100 to 1000 nM.

On to `NCCC1CCN(c2ncc(Sc3cccc(Cl)c3Cl)c3nncn23)CC1` [2-(1-(8-((2,3-dichlorophenyl)thio)-[1,2,4]triazolo[4,3-c]pyrimidin-5-yl)piperidin-4-yl)ethan-1-amine], for which the IC50 is 1000 to 10000 nM. For the compound `CC1(N)CCN(c2ncc(Sc3ccnc(N)c3Cl)c3nccn23)CC1` [4-((5-(4-amino-4-methylpiperidin-1-yl)imidazo[1,2-c]pyrimidin-8-yl)thio)-3-chloropyridin-2-amine], the 50% inhibitory concentration (IC50) was 100 to 1000 nM. In the case of `NC1CC2(CCN(c3ncc(Sc4cccc(Cl)c4Cl)c4nncn34)CC2)C1` [7-(8-((2,3-dichlorophenyl)thio)-[1,2,4]triazolo[4,3-c]pyrimidin-5-yl)-7-azaspiro[3.5]nonan-2-amine], the half-maximal inhibitory concentration (IC50) was in the range of 1000 to 10000 nM.

With `NC1CC2(CCN(c3ncc(Sc4cccc(Cl)c4Cl)c4nccn34)CC2)C1` [7-(8-((2,3-dichlorophenyl)thio)imidazo[1,2-c]pyrimidin-5-yl)-7-azaspiro[3.5]nonan-2-amine], the 50% inhibitory concentration (IC50) fell in the range of 100 to 1000 nM. The value for `Clc1cccc(Sc2cnc(N3CCC4(CCCN4)CC3)n3cnnc23)c1Cl` [8-(8-((2,3-dichlorophenyl)thio)-[1,2,4]triazolo[4,3-c]pyrimidin-5-yl)-1,8-diazaspiro[4.5]decane] was 1000 to 10000 nM. In the case of `CC1(N)COCC12CCN(c1ncc(Sc3cccc(Cl)c3Cl)c3nncn13)CC2` (centres unmarked) [8-(8-((2,3-dichlorophenyl)thio)-[1,2,4]triazolo[4,3-c]pyrimidin-5-yl)-4-methyl-2-oxa-8-azaspiro[4.5]decan-4-amine], the IC50 lay within 1000 to 10000 nM.

For the compound `CC1CN(c2ncc(Sc3cccc(Cl)c3Cl)c3nncn23)CC(C)N1` (centres unmarked) [8-((2,3-dichlorophenyl)thio)-5-(3,5-dimethylpiperazin-1-yl)-[1,2,4]triazolo[4,3-c]pyrimidine], the IC50 was 1000 to 10000 nM.

Turning to `NCC1(c2ccccc2)CCN(c2ncc(Sc3cccc(Cl)c3Cl)c3nccn23)CC1` [(1-(8-((2,3-dichlorophenyl)thio)imidazo[1,2-c]pyrimidin-5-yl)-4-phenylpiperidin-4-yl)methanamine], the IC50 was 100 to 1000 nM. Take `NCC1CCN(c2ncc(Sc3cccc(Cl)c3Cl)c3nccn23)CC1` [(1-(8-((2,3-dichlorophenyl)thio)imidazo[1,2-c]pyrimidin-5-yl)piperidin-4-yl)methanamine]: the 50% inhibitory concentration (IC50) was 100 to 1000 nM. On to `NCC1CCN(c2ncc(Sc3cccc(Cl)c3Cl)c3nccn23)C1` (centres unmarked) [(1-(8-((2,3-dichlorophenyl)thio)imidazo[1,2-c]pyrimidin-5-yl)pyrrolidin-3-yl)methanamine], for which the half-maximal inhibitory concentration (IC50) fell in the range of 100 to 1000 nM. As to `C[C@H]1OCC2(CCN(c3ncc(Sc4cccc(Cl)c4Cl)c4ncnn34)CC2)[C@H]1N` [(3R,4R)-8-(8-((2,3-dichlorophenyl)thio)-[1,2,4]triazolo[1,5-c]pyrimidin-5-yl)-3-methyl-2-oxa-8-azaspiro[4.5]decan-4-amine], the 50% inhibitory concentration (IC50) lay in the range of 1000 to 10000 nM. The same measure for `C[C@H]1OCC2(CCN(c3ncc(Sc4cccc(Cl)c4Cl)c4ncnn34)CC2)[C@@H]1N` [(3R,4S)-8-(8-((2,3-dichlorophenyl)thio)-[1,2,4]triazolo[1,5-c]pyrimidin-5-yl)-3-methyl-2-oxa-8-azaspiro[4.5]decan-4-amine]: 100 to 1000 nM; for `Cc1nccc(Sc2cnc(N3CCC4(CC3)CO[C@H](C)[C@H]4N)n3cnnc23)c1Cl` [(3R,4S)-8-(8-((3-chloro-2-methylpyridin-4-yl)thio)-[1,2,4]triazolo[4,3-c]pyrimidin-5-yl)-3-methyl-2-oxa-8-azaspiro[4.5]decan-4-amine]: less than 100 nM. For `N[C@@H]1CCC2CN(c3ncc(Sc4cccc(Cl)c4Cl)c4nncn34)CC21` (stereo partly drawn) [(4R)-2-(8-((2,3-dichlorophenyl)thio)-[1,2,4]triazolo[4,3-c]pyrimidin-5-yl)octahydrocyclopenta[c]pyrrol-4-amine], the half-inhibitory concentration (IC50) was in the range of 1000 to 10000 nM. Take `N[C@@H]1CCCN(c2ncc(Sc3cccc(Cl)c3Cl)c3nccn23)CC1` [(R)-1-(8-((2,3-dichlorophenyl)thio)imidazo[1,2-c]pyrimidin-5-yl)azepan-4-amine]: the IC50 fell in the range of 100 to 1000 nM.

Consider `N[C@@H]1CCCCC12CCN(c1ncc(Sc3cccc(Cl)c3Cl)c3nccn13)CC2` [(R)-3-(8-((2,3-dichlorophenyl)thio)imidazo[1,2-c]pyrimidin-5-yl)-3-azaspiro[5.5]undecan-7-amine], for which the half-inhibitory concentration (IC50) is 100 to 1000 nM.

In the case of `N[C@@H]1CCCC12CCN(c1ncc(-c3cccc(Cl)c3Cl)c3nncn13)CC2` [(R)-8-(8-(2,3-dichlorophenyl)-[1,2,4]triazolo[4,3-c]pyrimidin-5-yl)-8-azaspiro[4.5]decan-1-amine], the concentration for half-maximal inhibition (IC50) fell in the range of 1000 to 10000 nM. `N[C@@H]1CCCC12CCN(c1ncc(-c3cccc(Cl)c3Cl)c3nccn13)CC2` [(R)-8-(8-(2,3-dichlorophenyl)imidazo[1,2-c]pyrimidin-5-yl)-8-azaspiro[4.5]decan-1-amine]: the IC50 is 100 to 1000 nM. The same measure for `Cn1ccnc1Sc1cnc(N2CCC3(CCC[C@H]3N)CC2)n2cnnc12` [(R)-8-(8-((1-methyl-1H-imidazol-2-yl)thio)-[1,2,4]triazolo[4,3-c]pyrimidin-5-yl)-8-azaspiro[4.5]decan-1-amine]: 1000 to 10000 nM; for `CN[C@@H]1CCCC12CCN(c1ncc(Sc3cccc(Cl)c3Cl)c3nncn13)CC2` [(R)-8-(8-((2,3-dichlorophenyl)thio)-[1,2,4]triazolo[4,3-c]pyrimidin-5-yl)-N-methyl-8-azaspiro[4.5]decan-1-amine]: 1000 to 10000 nM. Turning to `CC1(C)COC2(CCN(c3ncc(Sc4cccc(Cl)c4Cl)c4nccn34)CC2)[C@@H]1N` [(R)-8-(8-((2,3-dichlorophenyl)thio)imidazo[1,2-c]pyrimidin-5-yl)-3,3-dimethyl-1-oxa-8-azaspiro[4.5]decan-4-amine], the IC50 lay within 100 to 1000 nM. The same measure for `N[C@@H]1CCCC12CCN(c1ncc(Sc3ccc4c(c3)CCO4)c3nccn13)CC2` [(R)-8-(8-((2,3-dihydrobenzofuran-5-yl)thio)imidazo[1,2-c]pyrimidin-5-yl)-8-azaspiro[4.5]decan-1-amine]: 100 to 1000 nM; for `N[C@@H]1CCCC12CCN(c1ncc(Sc3ccc(Cl)cc3Cl)c3nccn13)CC2` [(R)-8-(8-((2,4-dichlorophenyl)thio)imidazo[1,2-c]pyrimidin-5-yl)-8-azaspiro[4.5]decan-1-amine]: 100 to 1000 nM; for `N[C@@H]1CCCC12CCN(c1ncc(Sc3c(Cl)cccc3Cl)c3nncn13)CC2` [(R)-8-(8-((2,6-dichlorophenyl)thio)-[1,2,4]triazolo[4,3-c]pyrimidin-5-yl)-8-azaspiro[4.5]decan-1-amine]: 1000 to 10000 nM. The same measure for `Nc1cc(Sc2cnc(N3CCC4(CCC[C@H]4N)CC3)n3cnnc23)c(Cl)cn1` [(R)-8-(8-((2-amino-5-chloropyridin-4-yl)thio)-[1,2,4]triazolo[4,3-c]pyrimidin-5-yl)-8-azaspiro[4.5]decan-1-amine]: 1000 to 10000 nM. The value for `N[C@@H]1CCCC12CCN(c1ncc(Sc3ccccc3Cl)c3nccn13)CC2` [(R)-8-(8-((2-chlorophenyl)thio)imidazo[1,2-c]pyrimidin-5-yl)-8-azaspiro[4.5]decan-1-amine] was less than 100 nM; that for `N[C@@H]1CCCC12CCN(c1ncc(Sc3cccnc3Cl)c3nccn13)CC2` [(R)-8-(8-((2-chloropyridin-3-yl)thio)imidazo[1,2-c]pyrimidin-5-yl)-8-azaspiro[4.5]decan-1-amine] was less than 100 nM.

Take `N[C@@H]1CCCC12CCN(c1ncc(Sc3ccnc(Cl)n3)c3nccn13)CC2` [(R)-8-(8-((2-chloropyrimidin-4-yl)thio)imidazo[1,2-c]pyrimidin-5-yl)-8-azaspiro[4.5]decan-1-amine]: the IC50 is less than 100 nM.
